According to patent US20200325178A1, “PEPTIDE NUCLEIC ACID MOLECULES FOR TREATMENT OF GRAM POSITIVE BACTERIAL INFECTION” (priority 2017, published 2020):

Experiments:
[1] = system: MSSA clinical isolates and ATCC strains; assay: MIC and MBC against MSSA clinical isolates and ATCC strains; format: cell-based, Staphylococcus aureus; parameters: MIC: unit not given here
Method: Bioscreen-C instrument was used to detect the MIC and MBC of PNA-CPP derivatives against S. aureus MSSA strains. Different concentrations of PNA-CPP derivatives were prepared in 10 mM of sodium bicarbonate buffer pH-7.4 and added to ˜5.0 Log 10 CFUs in a Honey comb Bioscreen-C plate.
After the growth curve assays, the number of colony forming units (CFU) were counted to determine the MIC and MBC of each PNA-CPP derivative against MSSA.
(§1) Minimum inhibitory concentration (MIC) analyses were performed as described in Clinical and Laboratory Standards Institute, Methods for Dilution Antimicrobial Susceptibility Tests for Bacteria that Grow Aerobically, 7th ed.; Approved Standard M7-A7; CLSI: Wayne, Pa., USA, 2006; volume 26, No. 2. Vancomycin and Oxacillin were used as controls. MIC was determined as the lowest concentration of agent that inhibits bacterial growth detected at A420-580 nm.

[2] = system: S. aureus (ATCC BAA-1556); assay: Murine thigh infection model; format: in vivo; conditions: for Mean Log 10 CFU/Thigh / Mean Log 10 Change vs. 1 hr / Mean Log 10 Change vs. 24 hr (vehicle): neutropenic CD-1 mice, 10 mg/kg, 0.2 ml IV, 24 hrs
Method: Female 5-6 week old CD-1 (18-22 gm) were used in this study. Mice were quarantined for 48 hours before use and housed in groups of 5 with free access to food and water during the study.
The animals were made neutropenic by administration of cyclophosphamide on Days −4 and −1. On Days −4 150 mg/kg of cyclohsphamide administered by intraperitoneal route and 100 mg/kg was administered on Days −1. Days listed are referenced from the date of infection (study day-Day 0).
On Day 0, animals were inoculated intramuscularly (0.1 ml/thigh) with ˜1×10^5 CFU/mouse of S. aureus (ATCC BAA-1556) into right thigh. […] Group-3 of mice were administered with vancomycin at 25 mg/kg via subcutaneous route. Group-4 of mice administered with buffer and group-5 used as the inoculation control.
Mice were euthanized by CO2 inhalation and thighs were removed, and placed in 2 ml of sterile PBS, homogenized, serially diluted and plated to determine the CFU counts. Plates were incubated 18-24 hours and CFUs were counted.
Colony were counted and the number of colonies is converted to CFU/thigh by multiplying the number of colonies by the volume of the thigh homogenate spotted and the dilution at which the colonies were counted (5-50 colonies/spot). All count data were transformed into logo CFU/thigh for calculation of means and standard deviations.

[3] = system: MRSA clinical isolates and ATCC strains; assay: MIC and MBC against MRSA clinical isolates and ATCC strains; format: cell-based, Staphylococcus aureus; parameters: unit not given here
Method: Bioscreen-C instrument was used to detect the MIC and MBC of PNA-CPP derivatives against S. aureus MRSA strains. Different concentration of PNA-CPP derivatives were prepared in 10 mM of sodium bicarbonate buffer pH-7.4 and added to ˜5.0 Log 10 CFUs in a Honey comb Bioscreen-C plate.
After the growth curve assays, the number of colony forming units (CFU) were counted to determine the MIC and MBC of each PNA-CPP derivative against MRSA.
as §1, with “Vancomycin and Oxacillin were used as controls.” left out

MRSA = assay: In vitro assay of emergence of resistance, MRSA, 8 days; format: cell-based, S. aureus; conditions: 6.25 μg (twice MBC) in one ml Mueller Hinton broth, 37° C., through Day 8
Method: To determine the development of resistance in MRSA and MSSA strains against Compound I-HCl and Compound IV-HCl, an in vitro assay was performed. Twice the amount of MBC of Compound I-HCl (6.25 μg) and Compound IV-HCl (6.25 μg) were mixed with ˜5.0 log 10 CFUs in one ml of Mueller Hinton broth and incubated for 8 days at 37° C. Eight tubes of culture were used for each drug and bacterial strains. At 24 hours of interval, culture tubes were centrifuged and spent media were replaced with fresh media in presence of Compound I-HCl and Compound IV-HCl and further incubated to observe the growth of S. aureus strains. At 24 hours interval, one set of culture tube exposed to drugs were selected and a fraction of the culture used to plate on agar plates to observe the reduction of CFU counts as compared to untreated control. The rest of the culture samples were allowed to grow without any drug for additional 24 hours to observe the growth of S. aureus strains. One set of culture tubes without drug was used as the positive control.

[4] = Single ascending intravenous dose tolerability (MTD) in mice; format: in vivo; conditions: 10 mg/kg single intravenous bolus dose
Method: Single ascending intravenous (IV) dose study was performed to determine tolerability of the drug in mice.
Initially, Compound I-HCl and Compound IV-HCl were administered with a 10 mg/kg intravenous bolus dose using a 10 mL/kg dose volume (0.2 mL) and observed the effects before proceeding to the next higher dose. […] However, higher concentration (>15 mg/kg) had shown adverse effect and death in mice within 30 mins of administration of the drug.

[5] = MSSA table, isolate MRSA#16 [sic]
[6] = MSSA table, isolate MRSA#25 [sic]
[7] = MSSA table, isolate MRSA#27 [sic]
[8] = MSSA table, isolate MRSA#34 [sic]
[9] = MSSA table, isolate MRSA#38 [sic]
[10] = MSSA table, isolate MRSA#57 [sic]
[11] = MSSA table, isolate MRSA#60 [sic]
[12] = MSSA table, isolate printed MRSA#49
[13] = MSSA table, isolate printed MRSA#61

For “Compound I: PNA-CPP conjugate: PNA cgt cat acg cgg tcc (SEQ ID NO: 51), AEEA linker, CPP BXRXRRXRRXRRXR; FIG. 1 (CGTCATACGCGGTCC; all peptide nucleic acid (PNA); cell-penetrating peptide attached via AEEA linker, further chemistry not fully specified)”, the MBC [1, 5] was 1.56/1.56 ∞g, the MIC [1, 5] was 1.56/1.56 ∞g and the MBC [1, 6] was 3.25 ∞g. For the same substance, the MIC [1, 6] was 1.56 ∞g, the MBC [1, 7] was 1.56 ∞g and the MIC [1, 7] was 0.78 ∞g. The MBC [1, 8] was 3.25/3.25 ∞g, the MIC [1, 8] was 3.25/3.25 ∞g and the MBC [1, 9] was 1.56/1.56 ∞g. For the same substance, the MIC [1, 9] was 1.56/1.56 ∞g, the MBC ([1]; MSSA table, isolate MRSA#55) was 3.25 ∞g and the MIC ([1]; MSSA table, isolate MRSA#55) was 1.56 ∞g. For the same substance, the MBC [1, 10] was 3.25 ∞g, the MIC [1, 10] was 1.56 ∞g and the MBC [1, 11] was 1.56 ∞g. For the same substance, the MIC [1, 11] was 0.78 ∞g, the MBC [1, 12] was 3.25 ∞g and the MIC [1, 12] was 1.56 ∞g. The MBC [1, 13] was 3.25/3.25 ∞g, the MIC [1, 13] was 3.25/3.25 ∞g and the MBC ([1]; strain BAA 1721) was 3.25 ∞g. The MIC ([1]; strain BAA 1721) was 1.56 ∞g, the “reduction in CFU counts compared to Vancomycin positive control treatment” value ([2]; administered at 1 and 13 hours or at 1, 9, and 17 hours) was “comparable or improved reduction in CFU counts” and the “Mean Log 10 CFU/Thigh” value ([2]; +1 & 13 hrs) was 4.46 Log 10 CFU/Thigh. For the same substance, the “Mean Log 10 Change vs. 1 hr” value ([2]; +1 & 13 hrs) was −1.16 Log 10, the “Mean Log 10 Change vs. 24 hr (vehicle)” value ([2]; +1 & 13 hrs) was −4.07 Log 10 and the “Mean Log 10 CFU/Thigh” value ([2]; +1, +9, & +17 hrs) was 3.46 Log 10 CFU/Thigh. The “Mean Log 10 Change vs. 1 hr” value ([2]; +1, +9, & +17 hrs) was −2.16 Log 10, the “Mean Log 10 Change vs. 24 hr (vehicle)” value ([2]; +1, +9, & +17 hrs) was −5.07 Log 10 and the MBC ([3]; isolate MRSA#1) was 1.56. For the same substance, the MIC ([3]; isolate MRSA#1) was 0.78, the MBC ([3]; isolate MRSA#3) was 3.25 and the MIC ([3]; isolate MRSA#3) was 1.56. For the same substance, the MBC ([3]; isolate MRSA#6) was 1.56/1.56, the MIC ([3]; isolate MRSA#6) was 1.56/1.56 and the MBC ([3]; isolate MRSA#15) was 3.25/3.25. For the same substance, the MIC ([3]; isolate MRSA#15) was 3.25/3.25, the MBC ([3]; isolate MRSA#28) was 3.25/3.25 and the MIC ([3]; isolate MRSA#28) was 3.25/3.25. The MBC ([3]; isolate MRSA#31) was 3.25/3.25, the MIC ([3]; isolate MRSA#31) was 3.25/3.25 and the MBC ([3]; isolate MRSA#37) was 3.25. For the same substance, the MIC ([3]; isolate MRSA#37) was 1.56, the MBC ([3]; isolate MRSA#39) was 3.25/3.25 and the MIC ([3]; isolate MRSA#39) was 3.25/3.25. The MBC ([3]; isolate MRSA#42) was 1.56/1.56, the MIC ([3]; isolate MRSA#42) was 1.56/1.56 and the MBC ([3]; isolate MRSA#43) was 3.25. For the same substance, the MIC ([3]; isolate MRSA#43) was 1.56, the MBC ([3]; strain USA 300) was 3.25 and the MIC ([3]; strain USA 300) was 1.56. For the same substance, the “MRSA CFU counts and emergence of resistant strains” value (MRSA) was “reduced MRSA CFUs without emergence of resistant strains” and the tolerability in mice [4] was “well tolerated”.
